Laboratory results reported in ChEMBL document CHEMBL5352410, “Discovery of novel selenium-containing azole derivatives as antifungal agents by exploiting the hydrophobic cleft of CYP51” (Eur J Med Chem, 2022).
Values after ≈ are worked out from the molar mass of the structure shown.

Experiments:
Nakaseomyces glabratus = assay: Antifungal activity against Candida glabrata by CLSI based broth microdilution method; type: functional
Candida albicans [1] = assay: Fungicidal activity against Candida albicans; type: functional
Candida albicans [2] = assay: Fungicidal activity against FCZ-resistant Candida albicans 17#; type: functional
Candida albicans [3] = assay: Fungicidal activity against FCZ-resistant Candida albicans 632; type: functional
Candida albicans [4] = assay: Antibiofilm activity against Candida albicans SC5314 assessed as sessile minimum inhibitory concentration measured after 3 hrs by XTT assay; type: functional
Pichia kudriavzevii = assay: Antifungal activity against Pichia kudriavzevii by CLSI based broth microdilution method; type: functional
Candida albicans [5] = assay: Antifungal activity against FCZ-resistant Candida albicans CaR by CLSI based broth microdilution method; type: functional
Candida albicans [6] = assay: Antibiofilm activity against Candida albicans SC5314 assessed as sessile minimum inhibitory concentration measured after 1.5 hrs by XTT assay; type: functional
Candida albicans [7] = assay: Fungicidal activity against Candida albicans sc5314; type: functional
Aspergillus fumigatus = assay: Antifungal activity against Aspergillus fumigatus by CLSI based broth microdilution method; type: functional
Candida albicans [8] = assay: Antifungal activity against Candida albicans sc5314 by CLSI based broth microdilution method; type: functional
Candida albicans [9] = assay: Antifungal activity against FCZ-resistant Candida albicans 904 by CLSI based broth microdilution method; type: functional
Candida parapsilosis = assay: Antifungal activity against Candida parapsilosis by CLSI based broth microdilution method; type: functional; details: Lodderomyces parapsilosis
Cryptococcus neoformans = assay: Antifungal activity against Cryptococcus neoformans by CLSI based broth microdilution method; type: functional
[10] = Metabolic stability in mouse liver microsome assessed as half life; type: ADME; details: liver microsomes
[11] = Cytotoxicity against human HL-60 cells by MTT assay; type: toxicity, cell-based
Candida albicans [12] = assay: Antibiofilm activity against Candida albicans SC5314 assessed as sessile minimum inhibitory concentration measured after 6 hrs by XTT assay; type: functional
Candida albicans [13] = assay: Fungicidal activity against FCZ-resistant Candida albicans 901; type: functional
[Candida] zeylanoides = Antifungal activity against Candida zeylanoides by CLSI based broth microdilution method; type: functional; details: Dujonia zeylanoides
Candida albicans [14] = assay: Antifungal activity against FCZ-resistant Candida albicans 901 by CLSI based broth microdilution method; type: functional
[15] = Cytotoxicity against human PC-3 cells by MTT assay; type: toxicity, cell-based
Candida albicans [16] = assay: Antibiofilm activity against Candida albicans CPCC400616 assessed as sessile minimum inhibitory concentration measured after 6 hrs by XTT assay; type: functional
Candida albicans [17] = assay: Antifungal activity against FCZ-resistant Candida albicans 17# by CLSI based broth microdilution method; type: functional
[18] = Metabolic stability in mouse liver microsome assessed as clearance; type: ADME; details: liver microsomes, read-out: CLH
Candida albicans [19] = assay: Antibiofilm activity against Candida albicans CPCC400616 assessed as sessile minimum inhibitory concentration measured after 1.5 hrs by XTT assay; type: functional
[20] = Cytotoxicity against human MDA-MB-231 cells by MTT assay; type: toxicity, cell-based
Candida albicans [21] = assay: Fungicidal activity against FCZ-resistant Candida albicans 904; type: functional
Candida albicans [22] = assay: Antibiofilm activity against Candida albicans CPCC400616 assessed as sessile minimum inhibitory concentration measured after 24 hrs by XTT assay; type: functional
Candida albicans [23] = assay: Antifungal activity against Candida albicans by CLSI based broth microdilution method; type: functional
Candida albicans [24] = assay: Antibiofilm activity against Candida albicans CPCC400616 assessed as sessile minimum inhibitory concentration measured after 3 hrs by XTT assay; type: functional
Candida albicans [25] = assay: Antifungal activity against FCZ-resistant Candida albicans 632 by CLSI based broth microdilution method; type: functional
Candida albicans [26] = assay: Antibiofilm activity against Candida albicans SC5314 assessed as sessile minimum inhibitory concentration measured after 24 hrs by XTT assay; type: functional
Candida albicans [27] = assay: Fungicidal activity against FCZ-resistant Candida albicans CaR; type: functional

## Fc1ccc(C(Cn2ccnc2)[Se]C(Cn2ccnc2)c2ccc(F)cc2F)c(F)c1 (stereo unspecified)
Nakaseomyces glabratus
  MIC: 64 µg/mL (≈ 130 µM)
Candida albicans [1]
  MFC: 32 µg/mL (≈ 64.9 µM)
Candida albicans [2]
  MFC: > 64 µg/mL
Candida albicans [3]
  MFC: 8 µg/mL (≈ 16.2 µM)
Candida albicans [4]
  MIC50: 1 µg/mL (≈ 2.03 µM)
  MIC80: 4 µg/mL (≈ 8.11 µM)
Pichia kudriavzevii
  MIC: 32 µg/mL (≈ 64.9 µM)
Candida albicans [5]
  MIC: 2 µg/mL (≈ 4.05 µM)
Candida albicans [6]
  MIC50: 1 µg/mL (≈ 2.03 µM)
  MIC80: 4 µg/mL (≈ 8.11 µM)
Candida albicans [7]
  MFC: 8 µg/mL (≈ 16.2 µM)
Aspergillus fumigatus
  MIC: > 64 µg/mL
Candida albicans [8]
  MIC: 2 µg/mL (≈ 4.05 µM)
Candida albicans [9]
  MIC: 8 µg/mL (≈ 16.2 µM)
Candida parapsilosis
  MIC: 8 µg/mL (≈ 16.2 µM)
Cryptococcus neoformans
  MIC: 16 µg/mL (≈ 32.4 µM)
[10]
  half-life: 9.8 min
[11]
  IC50: 4.61 µM
Candida albicans [12]
  MIC50: 4 µg/mL (≈ 8.11 µM)
  MIC80: 16 µg/mL (≈ 32.4 µM)
Candida albicans [13]
  MFC: 8 µg/mL (≈ 16.2 µM)
[Candida] zeylanoides
  MIC: 2 µg/mL (≈ 4.05 µM)
Candida albicans [14]
  MIC: 4 µg/mL (≈ 8.11 µM)
[15]
  IC50: 1.45 µM
Candida albicans [16]
  MIC50: 2 µg/mL (≈ 4.05 µM)
  MIC80: 16 µg/mL (≈ 32.4 µM)
Candida albicans [17]
  MIC: 1 µg/mL (≈ 2.03 µM)
[18]
  CLint scaled: 558 mL/min/kg
Candida albicans [19]
  MIC50: 0.25 µg/mL (≈ 0.507 µM)
  MIC80: 2 µg/mL (≈ 4.05 µM)
[20]
  IC50: 8.26 µM
Candida albicans [21]
  MFC: 8 µg/mL (≈ 16.2 µM)
Candida albicans [22]
  MIC50: 4 µg/mL (≈ 8.11 µM)
  MIC80: 64 µg/mL (≈ 130 µM)
Candida albicans [23]
  MIC: 4 µg/mL (≈ 8.11 µM)
Candida albicans [24]
  MIC50: 1 µg/mL (≈ 2.03 µM)
  MIC80: 8 µg/mL (≈ 16.2 µM)
Candida albicans [25]
  MIC: 4 µg/mL (≈ 8.11 µM)
Candida albicans [26]
  MIC50: 1 µg/mL (≈ 2.03 µM)
  MIC80: 4 µg/mL (≈ 8.11 µM)
Candida albicans [27]
  MFC: > 64 µg/mL
